The values that follow come from patent USRE45313E1, “Exendin variant peptides” (priority 1999, dated 2014).

One data set addresses T1, leucine aminopeptidase (Sus scrofa, UniProt P28839).
T1 sequence (P28839 1-519): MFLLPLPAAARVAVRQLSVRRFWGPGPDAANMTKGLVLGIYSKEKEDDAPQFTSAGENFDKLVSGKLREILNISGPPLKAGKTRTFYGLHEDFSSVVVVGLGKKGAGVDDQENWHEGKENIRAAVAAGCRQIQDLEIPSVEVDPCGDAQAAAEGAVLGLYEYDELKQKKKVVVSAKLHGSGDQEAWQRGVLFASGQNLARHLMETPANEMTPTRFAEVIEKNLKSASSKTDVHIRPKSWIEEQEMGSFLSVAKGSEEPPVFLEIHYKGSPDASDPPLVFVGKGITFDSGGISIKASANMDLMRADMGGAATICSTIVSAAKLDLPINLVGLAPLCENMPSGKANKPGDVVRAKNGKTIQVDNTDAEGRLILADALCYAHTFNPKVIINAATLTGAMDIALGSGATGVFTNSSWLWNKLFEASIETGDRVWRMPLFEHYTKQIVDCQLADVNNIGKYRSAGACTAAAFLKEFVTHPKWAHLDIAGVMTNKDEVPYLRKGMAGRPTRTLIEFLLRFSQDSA
As to the kind of experiment: In vitro stability in leucine aminopeptidase solution. The conditions noted are these: pH 7.4. The method, then: (§1) A SHT200D block heater from Stuart Scientific was used for heating of the peptide/enzyme solutions during the stability experiments. The degradation of the test compounds was studied at 37° C. in 50 mM phosphate buffer solutions of pH 7.4 containing leucine aminopeptidase (25 U/ml) or carboxypeptidase A (1 U/ml) or 100 mM ammoniumbicarbonate buffer of pH 8.0 containing dipeptidyl aminopeptidase IV (0.5 U/ml). Experiments were initiated by addition of an aliquot (100 μl) of a stock solution (1 mg/ml) of the peptide in water to 900 μl preheated enzyme solution in an Eppendorf microvial giving an initial concentration of 0.1 mg/ml (˜1.7·10−5-1.8·10−5 M) of the peptide. The peptide/enzyme solution was kept at 37° C. and at appropriate time intervals samples of 100 μl were withdrawn from the peptide/enzyme solution and mixed thoroughly with 20 μl 25% TFA in acetonitrile in order to stop the enzymatic degradation process. The inactivated samples were transferred to autosampler vials and analysed for content of intact test compound by HPLC as described below.
(§2) Samples from the stability experiments performed as described above were analysed by gradient HPLC analysis using the instrumentation described above and the following experimental conditions.
(§3) In vitro stability studies with the present peptides and peptide conjugates in the presence of selected proteolytic enzymes are applied as a tool for evaluating the protection of said peptides against proteolysis in vivo.
(§4) Water used was of highest quality obtained from a Milli-Q water treatment system (Millipore, Bedford, Mass., U.S.A.). Acetonitrile (ACN) was of super gradient quality obtained from Labscan Ltd. (Dublin, Ireland). […] Leucine aminopeptidase (EC 3.4.11.1), Carboxypeptidase A (EC 3.4.17.1) and Dipeptidyl peptidase (Dipeptidyl aminopeptidase IV, EC 3.4.14.5) were all obtained from Sigma (St. Louis, Mo., U.S.A.). Gradient HPLC analysis was done using a Hewlett Packard HP 1100 HPLC system consisting of a HP 1100 Binary Pump, a HP 1100 Autosampler, A HP 1100 Column Thermostat and a HP 1100 Variable Wavelength Detector. Hewlett Packard Chem-station for LC software (Rev. A.06.01) was used for instrument control and data acquisition. A Vydac 238TP54 (150×4.6 mm I.D.) column packed with 5 μm, C18, 300 Å

In the next data set the target is T2, carboxypeptidase A (Bos taurus, UniProt P00730).
T2 sequence (P00730 111-419): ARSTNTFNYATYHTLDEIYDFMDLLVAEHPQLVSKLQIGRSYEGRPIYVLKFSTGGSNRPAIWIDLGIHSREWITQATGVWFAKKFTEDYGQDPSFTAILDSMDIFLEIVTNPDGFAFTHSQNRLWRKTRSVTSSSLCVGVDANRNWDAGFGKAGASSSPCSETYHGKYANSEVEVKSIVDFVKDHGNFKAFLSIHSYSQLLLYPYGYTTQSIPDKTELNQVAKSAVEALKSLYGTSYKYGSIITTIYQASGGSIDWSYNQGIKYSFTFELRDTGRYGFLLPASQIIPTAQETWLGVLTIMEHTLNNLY
Briefly: In vitro stability in carboxypeptidase A solution. The conditions noted are these: pH 7.4. The method, then: as §1, §2, §3, §4

Data set [1] deals with dipeptidyl aminopeptidase IV (Sus scrofa, UniProt P22411). As to the kind of experiment: In vitro stability in dipeptidyl aminopeptidase IV solution. The following applies: pH 8. How it is done: as §1, §2, §3, §4
Chain of dipeptidyl aminopeptidase IV (P22411 whole entry): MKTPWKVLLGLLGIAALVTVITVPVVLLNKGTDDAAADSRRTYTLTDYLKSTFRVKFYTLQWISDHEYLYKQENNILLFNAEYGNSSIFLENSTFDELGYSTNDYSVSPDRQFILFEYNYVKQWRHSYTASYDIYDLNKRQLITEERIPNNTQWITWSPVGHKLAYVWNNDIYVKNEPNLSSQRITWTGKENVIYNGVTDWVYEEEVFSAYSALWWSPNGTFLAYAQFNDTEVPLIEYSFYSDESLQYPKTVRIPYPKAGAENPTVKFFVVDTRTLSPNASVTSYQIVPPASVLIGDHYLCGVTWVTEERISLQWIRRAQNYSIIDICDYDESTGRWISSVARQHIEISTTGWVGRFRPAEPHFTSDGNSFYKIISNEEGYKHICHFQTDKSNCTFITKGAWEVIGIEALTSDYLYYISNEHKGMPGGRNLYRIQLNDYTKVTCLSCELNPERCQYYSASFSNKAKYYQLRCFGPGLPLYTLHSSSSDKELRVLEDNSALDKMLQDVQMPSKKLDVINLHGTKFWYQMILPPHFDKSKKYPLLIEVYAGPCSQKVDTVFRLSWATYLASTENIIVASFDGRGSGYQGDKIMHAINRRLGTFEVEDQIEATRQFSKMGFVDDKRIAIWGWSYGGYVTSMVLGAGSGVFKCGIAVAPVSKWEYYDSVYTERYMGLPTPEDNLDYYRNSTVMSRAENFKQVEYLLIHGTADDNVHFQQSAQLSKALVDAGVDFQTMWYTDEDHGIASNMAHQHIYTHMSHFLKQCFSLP
The target of data set [2] is T3, (Rattus norvegicus, UniProt P32301).
T3 construct: host or cells: brain tissue: nucleus of the solitary tract
T3 sequence (P32301 22-463): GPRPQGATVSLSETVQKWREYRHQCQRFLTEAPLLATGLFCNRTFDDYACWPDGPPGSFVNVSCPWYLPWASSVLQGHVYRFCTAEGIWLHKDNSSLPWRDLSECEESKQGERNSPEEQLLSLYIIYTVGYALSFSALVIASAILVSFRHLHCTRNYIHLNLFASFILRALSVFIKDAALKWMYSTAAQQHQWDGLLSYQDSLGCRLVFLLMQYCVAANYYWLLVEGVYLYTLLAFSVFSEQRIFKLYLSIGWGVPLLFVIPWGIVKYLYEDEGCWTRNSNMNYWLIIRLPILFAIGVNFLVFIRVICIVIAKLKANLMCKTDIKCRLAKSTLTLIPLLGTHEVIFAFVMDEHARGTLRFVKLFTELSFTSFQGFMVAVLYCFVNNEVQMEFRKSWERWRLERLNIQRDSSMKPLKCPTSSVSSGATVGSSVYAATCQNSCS
The following applies: inhibition of [^125I]GLP-1 binding; cited from earlier work.

Take `CC[C@H](C)[C@H](NC(=O)[C@H](Cc1ccccc1)NC(=O)[C@H](CCC(=O)O)NC(=O)[C@H](CCCCN)NC(=O)[C@H](C)NC(=O)[C@H](C)NC(=O)[C@H](CCC(N)=O)NC(=O)CNC(=O)[C@H](CCC(=O)O)NC(=O)[C@H](CC(C)C)NC(=O)[C@H](Cc1ccc(O)cc1)NC(=O)[C@H](CO)NC(=O)[C@H](CO)NC(=O)[C@@H](NC(=O)[C@H](CC(=O)O)NC(=O)[C@H](CO)NC(=O)[C@@H](NC(=O)[C@H](Cc1ccccc1)NC(=O)[C@@H](NC(=O)CNC(=O)[C@H](CCC(=O)O)NC(=O)[C@H](C)NC(=O)[C@@H](N)Cc1c[nH]cn1)[C@@H](C)O)[C@@H](C)O)C(C)C)C(=O)N[C@@H](C)C(=O)N[C@@H](Cc1c[nH]c2ccccc12)C(=O)N[C@@H](CC(C)C)C(=O)N[C@H](C(=O)N[C@@H](CCCCN)C(=O)NCC(=O)N[C@@H](CCCNC(=N)N)C(N)=O)C(C)C` [GLP-1, H-hGLP-1(7-36)-NH2, reference compound]: the half-life (as a rule, the time in which the quantity being followed falls by half) at 0.1 mg/ml stood at 152 min on leucine aminopeptidase, 48 min on carboxypeptidase A and 2 min in data set [1].
As for [Tyr39]exendin-4, the inhibitory constant (Ki) (commonly the dissociation constant of the complex between target and ligand, obtained from inhibition or displacement) in data set [2] was 9.4 nM.
